Patent US4435583A, “2-Halo-substituted monic acid A useful as antibacterial compounds” (Beecham Group p.l.c., priority 1981, dated 1984)
Converted amounts (≈) assume the structure as drawn.

Assays:
Format in all cases: cell-based
[1] = system: M. suipneumoniae UCD 1; experiment: In vitro anti-mycoplasmal MIC; details: Friis broth, 0.9% agarose, 6 days, 37° C.
[2] = system: Staph. aureus B4; experiment: MIC against veterinary bacteria; details: Diagnostic Sensitivity Test Agar, 18 hours, 37° C.
Procedure: (§1) The values were determined using a two fold serial dilutions in Diagnostic Sensitivity Test Agar with an inoculum of 10^4 organisms and incubation for 18 hours at 37° C.

[3] = system: Past. multocida PA2; experiment: MIC against veterinary bacteria; details: Diagnostic Sensitivity Test Agar, 18 hours, 37° C.
Procedure: as §1

[4] = system: Erysipelothrix rhusiopathiae NCTC 8163; experiment: MIC against veterinary bacteria; details: NCTC8163, Diagnostic Sensitivity Test Agar, 18 hours, 37° C., read-out: MIC
Procedure: as §1

[5] = system: Strep. suis (group D) SPS11; experiment: MIC against veterinary bacteria; details: Diagnostic Sensitivity Test Agar, 18 hours, 37° C.
Procedure: as §1

[6] = system: Staph. aureus 152; experiment: MIC against veterinary bacteria; details: Diagnostic Sensitivity Test Agar, 18 hours, 37° C.
Procedure: as §1

[7] = system: Bord. bronchiseptica B09; experiment: MIC against veterinary bacteria; details: Diagnostic Sensitivity Test Agar, 18 hours, 37° C.
Procedure: as §1

[8] = system: Strep. uberis SPU1; experiment: MIC against veterinary bacteria; details: Strep. uberis SPU1; Diagnostic Sensitivity Test Agar; 18 hours, 37° C.
Procedure: as §1

[9] = system: Bord. bronchiseptica B08; experiment: MIC against veterinary bacteria; details: Bordetella bronchiseptica, B08, 18 h, Diagnostic Sensitivity Test Agar, 37° C., read-out: MIC
Procedure: as §1

[10] = system: E. coli NCTC 10418; experiment: MIC against veterinary bacteria; details: Escherichia coli, NCTC10418, Diagnostic Sensitivity Test Agar, 18 hours, 37° C., read-out: MIC
Procedure: as §1

[11] = system: Past. multocida PA1; experiment: MIC against veterinary bacteria; details: Diagnostic Sensitivity Test Agar, 18 hours, 37° C.
Procedure: as §1

[12] = system: Strep. dysgalactiae SPD1; experiment: MIC against veterinary bacteria; details: Diagnostic Sensitivity Test Agar, 18 hours, 37° C.
Procedure: as §1

[13] = system: E. coli E1; experiment: MIC against veterinary bacteria; details: Escherichia coli, Diagnostic Sensitivity Test Agar, 18 hours, 37° C., read-out: MIC
Procedure: as §1

[14] = system: Corynebacterium pyogenes CY1; experiment: MIC against veterinary bacteria; details: Rhodococcus (subgen. Prescottella) equi, Diagnostic Sensitivity Test Agar, 18 hours, 37° C., read-out: MIC
Procedure: as §1

[15] = system: Staph. aureus Oxford; experiment: MIC against veterinary bacteria; details: Diagnostic Sensitivity Test Agar, 18 hours, 37° C.
Procedure: as §1

[16] = system: Strep. agalactiae SPA1; experiment: MIC against veterinary bacteria; details: Diagnostic Sensitivity Test Agar, 18 hours, 37° C.
Procedure: as §1

[17] = system: S. typhimurium S18; experiment: MIC against veterinary bacteria; details: Salmonella enterica, Diagnostic Sensitivity Test Agar, 18 hours, 37° C., read-out: MIC
Procedure: as §1

[18] = system: Past. haemolytica PA5; experiment: MIC against veterinary bacteria; details: Diagnostic Sensitivity Test Agar, 18 hours, 37° C.
Procedure: as §1

[19] = system: S. dublin S7; experiment: MIC against veterinary bacteria; details: Salmonella enterica, Diagnostic Sensitivity Test Agar, 18 hours, 37° C., read-out: MIC
Procedure: as §1

[20] = system: M. suipneumoniae HK(2); experiment: In vitro anti-mycoplasmal MIC; details: Friis broth, 0.9% agarose, 6 days, 37° C.
[21] = system: Bacillus subtilis 6633; experiment: MIC against human bacteria; details: nutrient agar, 5% chocolated horse blood, 18 hours, 37° C.
Procedure: (§2) The values were determined by serial dilutions in nutrient agar with 5% chocolated horse blood after incubations for 18 hours at 37° C.

[22] = system: Staph. aureus W2827; experiment: MIC against human bacteria; details: nutrient agar, 5% chocolated horse blood, 18 hours, 37° C.
Procedure: as §2

[23] = system: Sarcina lutea 8340; experiment: MIC against human bacteria; details: Micrococcus luteus, nutrient agar, 5% chocolated horse blood, 18 hours, 37° C., read-out: MIC
Procedure: as §2

[24] = system: Haemophilus influenzae Wy21; experiment: MIC against human bacteria; details: Haemophilus influenzae, WY21, 18 h, nutrient agar, 5% chocolated horse blood, 37° C.
Procedure: as §2

[25] = system: K. aerogenes A; experiment: MIC against human bacteria; details: Klebsiella aerogenes, nutrient agar, 5% chocolated horse blood, 18 hours, 37° C., read-out: MIC
Procedure: as §2

[26] = system: Strep. faecalis I; experiment: MIC against human bacteria; details: Enterococcus faecalis, nutrient agar, 5% chocolated horse blood, 18 hours, 37° C., read-out: MIC
Procedure: as §2

[27] = system: P. mirabilis 889; experiment: MIC against human bacteria; details: Proteus mirabilis, nutrient agar, 5% chocolated horse blood, 18 hours, 37° C., read-out: MIC
Procedure: as §2

[28] = system: Haemophilus influenzae Q1; experiment: MIC against human bacteria; details: Haemophilus influenzae, Q1, 18 h, nutrient agar, 5% chocolated horse blood, 37° C.
Procedure: as §2

[29] = system: E. coli NCTC 10418; experiment: MIC against human bacteria; details: Escherichia coli, NCTC10418, nutrient agar, 5% chocolated horse blood, 18 hours, 37° C., read-out: MIC
Procedure: as §2

[30] = system: Strep. 2788-B; experiment: MIC against human bacteria; details: nutrient agar, 5% chocolated horse blood, 18 hours, 37° C.
Procedure: as §2

[31] = system: Staph. aureus Russell; experiment: MIC against human bacteria; details: nutrient agar, 5% chocolated horse blood, 18 hours, 37° C.
Procedure: as §2

[32] = system: Strep. pneumoniae CN33; experiment: MIC against human bacteria; details: nutrient agar, 5% chocolated horse blood, 18 hours, 37° C.
Procedure: as §2

[33] = system: Neisseria catarrhalis 1502; experiment: MIC against human bacteria; details: nutrient agar, 5% chocolated horse blood, 18 hours, 37° C.
Procedure: as §2

[34] = system: Staph. aureus Oxford; experiment: MIC against human bacteria; details: nutrient agar, 5% chocolated horse blood, 18 hours, 37° C.
Procedure: as §2

[35] = system: Corynebacterium xerosis 9755; experiment: MIC against human bacteria; details: nutrient agar, 5% chocolated horse blood, 18 hours, 37° C., read-out: MIC
Procedure: as §2

[36] = system: E. coli ESS; experiment: MIC against human bacteria; details: nutrient agar, 5% chocolated horse blood, 18 hours, 37° C.
Procedure: as §2

[37] = system: Strep. pyrogenes R80/421-A; experiment: MIC against human bacteria; details: nutrient agar, 5% chocolated horse blood, 18 hours, 37° C.
Procedure: as §2

[38] = system: Past. multocida 1633; experiment: MIC against human bacteria; details: nutrient agar, 5% chocolated horse blood, 18 hours, 37° C.
Procedure: as §2

[39] = system: Ps. aeruginosa NCTC 10662; experiment: MIC against human bacteria; details: Pseudomonas aeruginosa, NCTC10662, nutrient agar, 5% chocolated horse blood, 18 hours, 37° C., read-out: MIC
Procedure: as §2

[40] = system: Strep. 641848-C; experiment: MIC against human bacteria; details: nutrient agar, 5% chocolated horse blood, 18 hours, 37° C.
Procedure: as §2

`CCOC(=O)C(F)=C(C)CC1OCC(CC2OC2C(C)C(C)O)C(O)C1O` [Example 1, Ethyl-4-[5S-(2S,3S-epoxy-5S-hydroxy-4S-methylhexyl)-3R, 4R-dihydroxytetrahydropyran-2S-yl]-2-fluoro-3-methylbut-2(Z)-enoate] was tested, and the MIC [1] was 0.5 µg/mL (≈ 1.28 µM), the MIC [2] was 0.63 µg/mL (≈ 1.61 µM) and the MIC [3] was 0.63 µg/mL (≈ 1.61 µM). The MIC [4] was 80 µg/mL (≈ 205 µM), the MIC [5] was 20.0 µg/mL (≈ 51.2 µM) and the MIC [6] was 0.63 µg/mL (≈ 1.61 µM). For the same molecule, the MIC [7] was 20.0 µg/mL (≈ 51.2 µM), the MIC [8] was 0.63 µg/mL (≈ 1.61 µM) and the MIC [9] was 80 µg/mL (≈ 205 µM). The MIC [10] was greater than 80 µg/mL, the MIC [11] was 1.3 µg/mL (≈ 3.33 µM) and the MIC [12] was 1.3 µg/mL (≈ 3.33 µM). It also gave an MIC [13] greater than 80 µg/mL, an MIC [14] of 80 µg/mL (≈ 205 µM) and an MIC [15] of 0.63 µg/mL (≈ 1.61 µM). For the same molecule, the MIC [16] was 2.5 µg/mL (≈ 6.4 µM), the MIC [17] was greater than 80 µg/mL and the MIC [18] was 5.0 µg/mL (≈ 12.8 µM). For the same molecule, the MIC [19] was greater than 80 µg/mL, the MIC [20] was 0.5 µg/mL (≈ 1.28 µM) and the MIC [21] was 2.5 µg/mL (≈ 6.4 µM). The MIC [22] was 1.0 µg/mL (≈ 2.56 µM), the MIC [23] was greater than 100 µg/mL and the MIC [24] was 0.25 µg/mL (≈ 0.64 µM). The MIC [25] was greater than 100 µg/mL, the MIC [26] was greater than 100 µg/mL and the MIC [27] was greater than 100 µg/mL. It also gave an MIC [28] of 0.1 µg/mL (≈ 0.256 µM), an MIC [29] greater than 100 µg/mL and an MIC [30] of 10.0 µg/mL (≈ 25.6 µM). The MIC [31] was 1.0 µg/mL (≈ 2.56 µM), the MIC [32] was 2.5 µg/mL (≈ 6.4 µM) and the MIC [33] was 0.5 µg/mL (≈ 1.28 µM). It also gave an MIC [34] of 1.0 µg/mL (≈ 2.56 µM), an MIC [35] greater than 100 µg/mL and an MIC [36] of 5.0 µg/mL (≈ 12.8 µM). The MIC [37] was 1.0 µg/mL (≈ 2.56 µM), the MIC [38] was 1.0 µg/mL (≈ 2.56 µM) and the MIC [39] was greater than 100 µg/mL. The MIC [40] was 5.0 µg/mL (≈ 12.8 µM).
